Data taken from patent EP1003775B1, “HEPATITIS C INHIBITOR PEPTIDES” (BOEHRINGER INGELHEIM (CANADA) LTD., priority 1997, dated 2005).

System: NS3 protease
Test: HCV NS3 protease inhibition (recombinant NS3 protease radiometric assays)
Format: biochemical, hepatitis C virus
Conditions: qualitative statement
Protocol: The substrate used for the HCV NS3 protease radiometric assay, DDIVPC-SMSYTW, is cleaved between the cysteine and the serine residues by the enzyme. The sequence DDIVPC-SMSYTW corresponds to the NS5A/NS5B natural cleavage site in which the cysteine residue in P2 has been substituted for a proline. The peptide substrate DDIVPC-SMSYTW and the tracer biotin-DDIVPC-SMS[^125I-Y]TW were incubated with the recombinant NS3 protease in the absence or in the presence of inhibitors. The separation of substrate from products was performed by adding avidin-coated agarose beads to the assay mixture followed by filtration. The amount of SMS [^125I-Y]TW product found in the filtrate (with or without inhibitor) allowed for the calculation of the percentage of substrate conversion and of the percentage of inhibition.
The assay was performed in a 96-well polypropylene plate. Each well contained: • 20 µL substrate/tracer in assay buffer; • 10 µL ± inhibitor in 20% DMSO/assay buffer; • 10 µL NS3 protease 1b. […]
The filtrates were counted on a Packard® TopCount instrument using a ^125I-liquid protocol for 1 minute. The %inhibition was calculated with the following equation: 100- [(countsinh -countsblank ) / (countsctl -countsblank ) x 100] […]
The value of IC50 was calculated in the same manner as in Example 19.

Substance: Ac-DDIVPC-OH [Ac-D-D-I-V-P-C-OH]
- inhibition of the NS3 protease: inhibitory
